Key:
crabgrass = experiment: Test B pre/postemergence crabgrass; assay type: in vivo, Digitaria sanguinalis; settings: for Crabgrass plant response rating (0 to 10 scale): 0 is no effect
In short: (§1)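 Herbicidal effect was estimated by eye on a ten-point control scale after plants spent twelve to sixteen days in a greenhouse following soil or foliar treatment. Foliar sprays targeted plants at one to four leaves; all doses were formulated in a non-phytotoxic solvent with surfactant.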

giant foxtail = experiment: Test B pre/postemergence giant foxtail; assay type: in vivo, Setaria faberii; settings: for Giant foxtail plant response rating (0 to 10 scale): 0 is no effect
In short: as §1

duck salad = experiment: Test B flood test duck salad; assay type: in vivo, Heteranthera limosa
In short: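 Flood test on plants grown to the 2-leaf stage; treated plants kept in greenhouse twelve to sixteen days, then visually rated against controls on a 0 (no effect) to 10 (complete control) scale.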

wheat = experiment: Test B pre/postemergence wheat; assay type: in vivo, Triticum aestivum
In short: as §1

[1] = Postemergence, Rate 125 g/ha, scale of 0 to 10 where 0 is no effect and 10 is complete control
[2] = Preemergence, Rate 31 g/ha, visual rating, scale 0 to 10 (0 no effect, 10 complete control)
[3] = Preemergence, Rate 62 g/ha, scale 0 to 10 (0 no effect, 10 complete control)
[4] = Preemergence, Rate 125 g/ha, 10 is complete control
[5] = Preemergence, Rate 250 g/ha, scale 0 to 10, 0 is no effect, 10 is complete control
[6] = Rate 31 g/ha, Postemergence, scale 0 to 10
[7] = Rate 62 g/ha, Postemergence, scale of 0 to 10 where 0 is no effect and 10 is complete control
[8] = Rate 250 g/ha, Postemergence, scale 0 to 10, 0 is no effect, 10 is complete control
[9] = Preemergence, Rate 62 g/ha, scale of 0 to 10 where 0 is no effect and 10 is complete control
[10] = Preemergence, Rate 500 g/ha, scale 0 to 10 (0 no effect, 10 complete control)
[11] = Rate 125 g/ha, Postemergence, scale 0 to 10
[12] = Rate 500 g/ha, Postemergence, scale 0 to 10
[13] = Rate 62 g/ha, headed Pre-emergence (flood test species), scale 0 to 10 (0 no effect, 10 complete control)
[14] = Rate 125 g/ha, Pre-emergence, flood test species, scale 0 to 10 where 0 is no effect and 10 is complete control
[15] = Rate 250 g/ha, Pre-emergence, flood-test species, scale 0 to 10, 0 is no effect, 10 is complete control
[16] = Rate 500 g/ha, headed Pre-emergence (flood test species), scale 0 to 10 (0 no effect, 10 complete control)
[17] = Preemergence, Rate 500 g/ha, scale of 0 to 10 where 0 is no effect and 10 is complete control

In the case of `Cc1noc(C)c1-n1c(=O)on(C(=O)N(c2ccc(F)cc2)C(C)C)c1=O` [Compound 155], the “Crabgrass plant response rating” value (crabgrass; [1]) is reported as 2, the “Crabgrass plant response rating” value (crabgrass; [2]) is reported as 0 and the “Crabgrass plant response rating” value (crabgrass; [3]) is reported as 0. For the same compound, the “Crabgrass plant response rating (0 to 10 scale)” value (crabgrass; [4]) was 0, the “Crabgrass plant response rating” value (crabgrass; [5]) was 6 and the “Crabgrass plant response rating” value (crabgrass; [6]) was 0. For the same compound, the “Crabgrass plant response rating” value (crabgrass; [7]) was 1, the “Plant response rating, Crabgrass” value (crabgrass; [8]) was 8 and the “Giant foxtail plant response rating” value (giant foxtail; [1]) was 3. For the same compound, the “Giant foxtail plant response rating” value (giant foxtail; [2]) was 0, the “Giant foxtail plant response rating” value (giant foxtail; [3]) was 0 and the “Giant foxtail plant response rating (0 to 10 scale)” value (giant foxtail; [4]) was 0. For the same compound, the “Giant foxtail plant response rating” value (giant foxtail; [5]) was 2, the “Giant foxtail plant response rating” value (giant foxtail; [6]) was 0 and the “Giant foxtail plant response rating” value (giant foxtail; [7]) was 1. For the same compound, the “Plant response rating, Giant foxtail” value (giant foxtail; [8]) was 6, the “Ducksalad plant response rating” value (duck salad; Postemergence (flood test species), Rate 125 g/ha, scale of 0 to 10 where 0 is no effect and 10 is complete control) was 0 and the “Ducksalad plant response rating” value (duck salad; Rate 31 g/ha, Postemergence section (flood test species), scale 0 to 10) was 0. The “Ducksalad plant response rating” value (duck salad; Rate 62 g/ha, Postemergence section, flood test species, scale of 0 to 10 where 0 is no effect and 10 is complete control) was 0, the “Plant response rating, Ducksalad” value (duck salad; Rate 250 g/ha, Postemergence (flood test), scale 0 to 10, 0 is no effect, 10 is complete control) was 0 and the “Wheat plant response rating” value (wheat; [2]) was 0. The “Wheat plant response rating” value (wheat; [3]) was 0, the “Wheat plant response rating (0 to 10 scale)” value (wheat; Preemergence, Rate 125 g/ha, 0 is no effect, 10 is complete control) was 0 and the “Wheat plant response rating” value (wheat; [5]) was 0. For the same compound, the “Wheat plant response rating” value (wheat; [7]) was 0 and the “Plant response rating, Wheat” value (wheat; [8]) was 0.

With `COc1nc(OC)nc(N(C(=O)n2oc(=O)n(C(C)C)c2=O)C(C)C)n1` [Compound 182] the “Crabgrass plant response rating” value (crabgrass; [9]) was 0, the “Crabgrass plant response rating (0 to 10 scale)” value (crabgrass; [4]) was 0 and the “Crabgrass plant response rating” value (crabgrass; [5]) was 0. For the same compound, the “Crabgrass plant response rating” value (crabgrass; [10]) was 0, the “Crabgrass plant response rating” value (crabgrass; [7]) was 0 and the “Crabgrass plant response rating” value (crabgrass; [11]) was 0. The “Plant response rating (0 to 10; 0 is no effect, 10 is complete control), Crabgrass” value (crabgrass; Rate 250 g/ha, Postemergence) was 0, the “Crabgrass plant response rating” value (crabgrass; [12]) was 0 and the “Giant foxtail plant response rating” value (giant foxtail; [9]) was 0. For the same compound, the “Giant foxtail plant response rating (0 to 10 scale)” value (giant foxtail; [4]) was 0, the “Giant foxtail plant response rating” value (giant foxtail; [5]) was 0 and the “Giant foxtail plant response rating” value (giant foxtail; [10]) was 0. For the same compound, the “Giant foxtail plant response rating” value (giant foxtail; [7]) was 0, the “Giant foxtail plant response rating” value (giant foxtail; [11]) was 0 and the “Plant response rating (0 to 10; 0 is no effect, 10 is complete control), Giant foxtail” value (giant foxtail; Rate 250 g/ha, Postemergence) was 0. For the same compound, the “Giant foxtail plant response rating” value (giant foxtail; [12]) was 0, the “Ducksalad plant response rating” value (duck salad; [13]) was 0 and the “Ducksalad plant response rating” value (duck salad; [14]) was 0. For the same compound, the “Ducksalad plant response rating” value (duck salad; [15]) was 0, the “Plant response rating, Ducksalad” value (duck salad; [16]) was 0 and the “Wheat plant response rating” value (wheat; [9]) was 0. For the same compound, the “Wheat plant response rating” value (wheat; [5]) was 0, the “Wheat plant response rating” value (wheat; [10]) was 0 and the “Wheat plant response rating” value (wheat; [11]) was 0. For the same compound, the “Plant response rating (0 to 10; 0 is no effect, 10 is complete control), Wheat” value (wheat; Rate 250 g/ha, Postemergence) was 0 and the “Wheat plant response rating” value (wheat; [12]) was 0.

In the case of `CCC(CC)N(C(=O)n1oc(=O)n(-c2ccccc2C)c1=O)c1ccc(F)cc1` [Compound 193], the “Crabgrass plant response rating (0 to 10 scale)” value (crabgrass; [4]) is reported as 4, the “Crabgrass plant response rating” value (crabgrass; [5]) is reported as 6 and the “Plant response rating, Crabgrass” value (crabgrass; [17]) is reported as 7. For the same compound, the “Crabgrass plant response rating” value (crabgrass; [7]) was 0, the “Crabgrass plant response rating” value (crabgrass; [11]) was 0 and the “Plant response rating (0 to 10; 0 is no effect, 10 is complete control), Crabgrass” value (crabgrass; Rate 250 g/ha, Postemergence) was 0. The “Crabgrass plant response rating” value (crabgrass; [12]) was 0, the “Giant foxtail plant response rating” value (giant foxtail; [9]) was 2 and the “Giant foxtail plant response rating (0 to 10 scale)” value (giant foxtail; [4]) was 4. The “Giant foxtail plant response rating” value (giant foxtail; [5]) was 5, the “Plant response rating, Giant foxtail” value (giant foxtail; [17]) was 6 and the “Giant foxtail plant response rating” value (giant foxtail; [7]) was 0. For the same compound, the “Giant foxtail plant response rating” value (giant foxtail; [11]) was 0, the “Plant response rating (0 to 10; 0 is no effect, 10 is complete control), Giant foxtail” value (giant foxtail; Rate 250 g/ha, Postemergence) was 0 and the “Giant foxtail plant response rating” value (giant foxtail; [12]) was 0. For the same compound, the “Ducksalad plant response rating” value (duck salad; [13]) was 0, the “Ducksalad plant response rating” value (duck salad; [14]) was 0 and the “Ducksalad plant response rating” value (duck salad; [15]) was 0. The “Plant response rating, Ducksalad” value (duck salad; [16]) was 0, the “Wheat plant response rating” value (wheat; [9]) was 0 and the “Wheat plant response rating” value (wheat; [5]) was 0. The “Plant response rating, Wheat” value (wheat; [17]) was 0, the “Wheat plant response rating” value (wheat; [7]) was 0 and the “Wheat plant response rating” value (wheat; [11]) was 0. The “Plant response rating (0 to 10; 0 is no effect, 10 is complete control), Wheat” value (wheat; Rate 250 g/ha, Postemergence) was 0.

With `C=CCn1c(=O)on(C(=O)N(c2ccc(F)cc2)C2CCC2)c1=O` [Compound 194] the “Crabgrass plant response rating” value (crabgrass; [9]) was 4, the “Crabgrass plant response rating (0 to 10 scale)” value (crabgrass; [4]) was 9 and the “Crabgrass plant response rating” value (crabgrass; [5]) was 9. For the same compound, the “Crabgrass plant response rating” value (crabgrass; [7]) was 0, the “Crabgrass plant response rating” value (crabgrass; [11]) was 0 and the “Plant response rating (0 to 10; 0 is no effect, 10 is complete control), Crabgrass” value (crabgrass; Rate 250 g/ha, Postemergence) was 0. For the same compound, the “Crabgrass plant response rating” value (crabgrass; [12]) was 2, the “Giant foxtail plant response rating” value (giant foxtail; [9]) was 3 and the “Giant foxtail plant response rating (0 to 10 scale)” value (giant foxtail; [4]) was 8. For the same compound, the “Giant foxtail plant response rating” value (giant foxtail; [5]) was 8, the “Plant response rating, Giant foxtail” value (giant foxtail; [17]) was 9 and the “Giant foxtail plant response rating” value (giant foxtail; [7]) was 0. The “Giant foxtail plant response rating” value (giant foxtail; [11]) was 1, the “Plant response rating (0 to 10; 0 is no effect, 10 is complete control), Giant foxtail” value (giant foxtail; Rate 250 g/ha, Postemergence) was 2 and the “Giant foxtail plant response rating” value (giant foxtail; [12]) was 2. The “Ducksalad plant response rating” value (duck salad; [13]) was 0, the “Ducksalad plant response rating” value (duck salad; [14]) was 0 and the “Ducksalad plant response rating” value (duck salad; [15]) was 0. The “Plant response rating, Ducksalad” value (duck salad; [16]) was 0, the “Wheat plant response rating” value (wheat; [9]) was 0 and the “Wheat plant response rating” value (wheat; [5]) was 0. For the same compound, the “Plant response rating, Wheat” value (wheat; [17]) was 2, the “Wheat plant response rating” value (wheat; [7]) was 0 and the “Wheat plant response rating” value (wheat; [11]) was 0. For the same compound, the “Plant response rating (0 to 10; 0 is no effect, 10 is complete control), Wheat” value (wheat; Rate 250 g/ha, Postemergence) was 0.

For `Cc1ccccc1-n1c(=O)on(C(=O)N(c2ccc(Cl)cc2F)C(C)C)c1=O` [Compound 195], the “Crabgrass plant response rating” value (crabgrass; [9]) was 3, the “Crabgrass plant response rating (0 to 10 scale)” value (crabgrass; [4]) was 4 and the “Crabgrass plant response rating” value (crabgrass; [5]) was 5. For the same compound, the “Plant response rating, Crabgrass” value (crabgrass; [17]) was 9, the “Crabgrass plant response rating” value (crabgrass; [7]) was 0 and the “Crabgrass plant response rating” value (crabgrass; [11]) was 0. The “Plant response rating (0 to 10; 0 is no effect, 10 is complete control), Crabgrass” value (crabgrass; Rate 250 g/ha, Postemergence) was 2, the “Crabgrass plant response rating” value (crabgrass; [12]) was 5 and the “Giant foxtail plant response rating” value (giant foxtail; [9]) was 3. For the same compound, the “Giant foxtail plant response rating (0 to 10 scale)” value (giant foxtail; [4]) was 3, the “Giant foxtail plant response rating” value (giant foxtail; [5]) was 8 and the “Plant response rating, Giant foxtail” value (giant foxtail; [17]) was 10. For the same compound, the “Giant foxtail plant response rating” value (giant foxtail; [7]) was 0, the “Giant foxtail plant response rating” value (giant foxtail; [11]) was 0 and the “Plant response rating (0 to 10; 0 is no effect, 10 is complete control), Giant foxtail” value (giant foxtail; Rate 250 g/ha, Postemergence) was 1. The “Giant foxtail plant response rating” value (giant foxtail; [12]) was 3, the “Ducksalad plant response rating” value (duck salad; [13]) was 0 and the “Ducksalad plant response rating” value (duck salad; [14]) was 0. The “Ducksalad plant response rating” value (duck salad; [15]) was 0, the “Plant response rating, Ducksalad” value (duck salad; [16]) was 0 and the “Wheat plant response rating” value (wheat; [9]) was 0. The “Wheat plant response rating” value (wheat; [5]) was 0, the “Plant response rating, Wheat” value (wheat; [17]) was 0 and the “Wheat plant response rating” value (wheat; [7]) was 0. The “Wheat plant response rating” value (wheat; [11]) was 0 and the “Plant response rating (0 to 10; 0 is no effect, 10 is complete control), Wheat” value (wheat; Rate 250 g/ha, Postemergence) was 0.

Reference: patent US6737383B1, “Herbicidal oxadiazolidines” (priority 1999, dated 2004)
